Measured values from PubChem BioAssay AID1963428 (Molecular Pharmacology Branch, DTP, NCI, 2024).

Tested on: 171881-019-R-J1-PDC complex spheroid growth, % test/control
Experiment: Anticancer human tumor 171881-019-R-J1-PDC patient-derived invasive breast carcinoma cell line growth inhibition [Asc]
Conditions: for IC50: curve of first compound; for viability, T/C: stronger effect = lower value
Protocol: Multicellular complex tumor spheroid response to apoptosis pathway targeting inhibitors Alrizomadlin, Pelcitoclax, and Dasminapant in combination with a variety of drugs and investigational agents in selected tumor cell lines
The MDM2 inhibitor alrizomadlin, the Bcl-2/Bcl-xL inhibitor pelcitoclax, and the IAPs inhibitor dasminapant were evaluated both individually and in combination with standard of care and investigational anticancer small molecules within a complex spheroid model of solid tumors. . Complex spheroids include a stromal component modeled by human endothelial cells (HUVEC) and fibroblasts modeled by human mesenchymal stem cells (MSCs). The concentration ranges selected for each drug and investigational agent were based upon clinically achievable concentrations if the clinical Cmax of the agent was known.
Compounds. The drugs and investigational agents: alrizomadlin (APG-115; NSC831270), pelcitoclax (APG-1252; NSC835773), dasminapant (APG-1387;NSC834197), TAK-243 (NSC785004), copanlisib (NSC809693), olaparib (NSC753686), talazoparib (NSC767125), cobimetinib (NSC 768068), eltanexor (KPT-8602, NSC 794443), abemaciclib (NSC 768073), sotorasib (NSC818433), adagrasib (NSC 831453), MRTX-1133 (NSC 836407), Iadademestat (ORY1001, NSC 806812), and RMC-4630 (NSC839698), were obtained from the NCI Developmental Therapeutics Program Chemical Repository. The FDA-approved anticancer drug set is available from the Developmental Therapeutics Program at https://dtp.cancer.gov/organization/dscb/obtaining/available plates.htm. […] The stock solutions were prepared in dimethyl sulfoxide (DMSO, Sigma-Aldrich, St. Louis, MO, cat. D2650) at 800-fold the tested concentration and stored at -70 degrees C prior to their use. All drugs and investigational agents were tested over a range starting from a high concentration at or near the clinical Cmax and decreasing in half-log increments. If the clinical Cmax for an agent had not been determined, the highest concentration tested was 10 microM.
The patient-derived cancer (PDC) cell lines include five colon adenocarcinomas: 186277-243-T-J2-PDC, 616215-338-R-J1-PDC, 439559-082-T-J2-PDC, 463943-066-T-J2-PDC, and 519858-162-T-J1-PDC; three pancreatic carcinomas: 323965-272-R-J2-PDC, 521955-158-R6-J3-PDC, and 521955-158-R2-J5-PDC; two uterine sarcomas: 327498-152-R-J2-PDC and 993429-296-R-J1-PDC; two rhabdomyosarcomas: 755483-174-R-J1-PDC and 772245-204-R-J1-PDC; two soft tissue sarcomas: 126254-015-R-J1-PDC and 494315-158-R-J1-PDC; two malignant fibrous histiocytomas: 317291-083-R-J1-PDC and 596521-263-R-J1-PDC; two breast carcinomas: 171881-019-R-J1-PDC and 885512-296-R-J2-PDC; and one ovarian carcinoma: 6556581-035-R-J-PDC were obtained from the NCI PDMR, (https://pdmr.cancer.gov). The established cell lines HSSY-2 synovial sarcoma (RRID:CVCL 8719), SYO-1 synovial sarcoma (RRID:CVCL_7146), MPNST malignant peripheral neural sheath tumor were obtained from the Sloan Kettering Institute. The following established cell lines were purchased from the American Type Culture Collection (ATCC, Manassas, VA), Sor the received from the NCI repository:, PANC-1 pancreatic carcinoma (CRL-1469, RRID:CVCL_0480), OVCAR-5 ovarian carcinoma (RRID:CVCL_1628), OVCAR-8 ovarian carcinoma (RRID:CVCL_1629), , MCF-7 breast carcinoma (CRL-12584, RRID:CVCL_0031), MDA-MB-231 breast carcinoma (CRL-12532, RRID:CVCL_0062), NCI-H1876 small cell lung carcinoma (CRL-5902, RRID:CVCL_1503), NCI-H510A small cell lung carcinoma (HTB-184, RRID:CVCL_1565), NCI-H1417 (CRL-5869, RRID:CVCL_1469), and NCI-H196 small cell lung carcinoma (CRL-5823, RRID:CVCL_1509). Dr. Peter Houghton (Greehey Children's Cancer Research Institute, University of Texas Health Science Center, San Antonio, TX) provided Rh-18 rhabdomyosarcoma (RRID:CVCL_1659). Pooled donor human umbilical vein endothelial cells (HUVEC, Lonza, cat. CC-2519) and human mesenchymal stem cells (hMSC, Lonza, cat. PT-2501) were purchased from Lonza (Walkersville, MD).
Cell Culture. […]

[1] = second compound 0.03 µM, first compound 0.00316 µM
[2] = second compound 0.03 µM, first compound 0.01 µM
[3] = second compound 0.03 µM, first compound 0.0316 µM
[4] = second compound 0.03 µM, first compound 0.1 µM
[5] = second compound 0.0949 µM, first compound 0.00316 µM
[6] = second compound 0.0949 µM, first compound 0.01 µM
[7] = second compound 0.0949 µM, first compound 0.0316 µM
[8] = second compound 0.0949 µM, first compound 0.1 µM
[9] = second compound 0.3 µM, first compound 0.00316 µM
[10] = second compound 0.3 µM, first compound 0.01 µM
[11] = second compound 0.3 µM, first compound 0.0316 µM
[12] = second compound 0.3 µM, first compound 0.1 µM
[13] = second compound 0.949 µM, first compound 0.00316 µM
[14] = second compound 0.949 µM, first compound 0.01 µM
[15] = second compound 0.949 µM, first compound 0.0316 µM
[16] = second compound 0.949 µM, first compound 0.1 µM
[17] = second compound 3 µM, first compound 0.00316 µM
[18] = second compound 3 µM, first compound 0.01 µM
[19] = second compound 3 µM, first compound 0.0316 µM
[20] = second compound 3 µM, first compound 0.1 µM
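For viability, T/C in this document: spheroids exposed to compounds for 7 days.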

CCN1CCN(Cc2ccc(Nc3ncc(F)c(-c4cc(F)c5nc(C)n(C(C)C)c5c4)n3)nc2)CC1 + CCN1C(C(=O)NC23CCC(C(=O)O)(CC2)CC3)C(c2cccc(Cl)c2F)C2(C(=O)Nc3cc(Cl)ccc32)C12CCCCC2
IC50 (second compound 0.03 µM): > 1000 nM
IC50 (second compound 0.0949 µM): > 1000 nM
IC50 (second compound 0.3 µM): > 1000 nM
IC50 (second compound 0.949 µM): > 1000 nM
IC50 (second compound 3 µM): > 1000 nM
viability, T/C [1]: 97.8%
viability, T/C [2]: 86.6%
viability, T/C [3]: 108%
viability, T/C [4]: 128%
viability, T/C (second compound 0.03 µM, first compound 0.316 µM): 133%
viability, T/C (second compound 0.03 µM, first compound 1 µM): 133%
viability, T/C [5]: 104%
viability, T/C [6]: 96.2%
viability, T/C [7]: 115%
viability, T/C [8]: 117%
viability, T/C (second compound 0.0949 µM, first compound 0.316 µM): 144%
viability, T/C (second compound 0.0949 µM, first compound 1 µM): 144%
viability, T/C [9]: 109%
viability, T/C [10]: 115%
viability, T/C [11]: 109%
viability, T/C [12]: 111%
viability, T/C (second compound 0.3 µM, first compound 0.316 µM): 129%
viability, T/C (second compound 0.3 µM, first compound 1 µM): 126%
viability, T/C [13]: 114%
viability, T/C [14]: 119%
viability, T/C [15]: 112%
viability, T/C [16]: 118%
viability, T/C (second compound 0.949 µM, first compound 0.316 µM): 129%
viability, T/C (second compound 0.949 µM, first compound 1 µM): 143%
viability, T/C [17]: 101%
viability, T/C [18]: 107%
viability, T/C [19]: 115%
viability, T/C [20]: 130%
viability, T/C (second compound 3 µM, first compound 0.316 µM): 146%
viability, T/C (second compound 3 µM, first compound 1 µM): 144%

NC(=O)C(=Cn1cnc(-c2cc(C(F)(F)F)cc(C(F)(F)F)c2)n1)c1cncnc1 + CCN1C(C(=O)NC23CCC(C(=O)O)(CC2)CC3)C(c2cccc(Cl)c2F)C2(C(=O)Nc3cc(Cl)ccc32)C12CCCCC2
IC50 (second compound 0.03 µM): 34.5 nM
IC50 (second compound 0.0949 µM): 29.2 nM
IC50 (second compound 0.3 µM): 37.4 nM
IC50 (second compound 0.949 µM): 38.1 nM
IC50 (second compound 3 µM): 29.3 nM
viability, T/C (second compound 0.03 µM, first compound 0.000949 µM): 116%
viability, T/C (second compound 0.03 µM, first compound 0.003 µM): 103%
viability, T/C (second compound 0.03 µM, first compound 0.00949 µM): 93.8%
viability, T/C (second compound 0.03 µM, first compound 0.03 µM): 57.9%
viability, T/C (second compound 0.03 µM, first compound 0.0949 µM): 9.64%
viability, T/C (second compound 0.03 µM, first compound 0.3 µM): 3.28%
viability, T/C (second compound 0.0949 µM, first compound 0.000949 µM): 139%
viability, T/C (second compound 0.0949 µM, first compound 0.003 µM): 101%
viability, T/C (second compound 0.0949 µM, first compound 0.00949 µM): 100%
viability, T/C (second compound 0.0949 µM, first compound 0.03 µM): 48.6%
viability, T/C (second compound 0.0949 µM, first compound 0.0949 µM): 10.1%
viability, T/C (second compound 0.0949 µM, first compound 0.3 µM): 3.82%
viability, T/C (second compound 0.3 µM, first compound 0.000949 µM): 121%
viability, T/C (second compound 0.3 µM, first compound 0.003 µM): 118%
viability, T/C (second compound 0.3 µM, first compound 0.00949 µM): 108%
viability, T/C (second compound 0.3 µM, first compound 0.03 µM): 60.3%
viability, T/C (second compound 0.3 µM, first compound 0.0949 µM): 8.36%
viability, T/C (second compound 0.3 µM, first compound 0.3 µM): 2.76%
viability, T/C (second compound 0.949 µM, first compound 0.000949 µM): 126%
viability, T/C (second compound 0.949 µM, first compound 0.003 µM): 115%
viability, T/C (second compound 0.949 µM, first compound 0.00949 µM): 114%
viability, T/C (second compound 0.949 µM, first compound 0.03 µM): 61%
viability, T/C (second compound 0.949 µM, first compound 0.0949 µM): 8.13%
viability, T/C (second compound 0.949 µM, first compound 0.3 µM): 0.97%
viability, T/C (second compound 3 µM, first compound 0.000949 µM): 111%
viability, T/C (second compound 3 µM, first compound 0.003 µM): 117%
viability, T/C (second compound 3 µM, first compound 0.00949 µM): 105%
viability, T/C (second compound 3 µM, first compound 0.03 µM): 48.8%
viability, T/C (second compound 3 µM, first compound 0.0949 µM): 6.01%
viability, T/C (second compound 3 µM, first compound 0.3 µM): 1.16%

NC1CCC(NC2CC2c2ccccc2)CC1 (stereo not given) + CCN1C(C(=O)NC23CCC(C(=O)O)(CC2)CC3)C(c2cccc(Cl)c2F)C2(C(=O)Nc3cc(Cl)ccc32)C12CCCCC2
IC50 (second compound 0.03 µM): > 100 nM
IC50 (second compound 0.0949 µM): > 100 nM
IC50 (second compound 0.3 µM): > 100 nM
IC50 (second compound 0.949 µM): > 100 nM
IC50 (second compound 3 µM): > 100 nM
viability, T/C (second compound 0.03 µM, first compound 0.000316 µM): 123%
viability, T/C (second compound 0.03 µM, first compound 0.001 µM): 120%
viability, T/C [1]: 111%
viability, T/C [2]: 106%
viability, T/C [3]: 110%
viability, T/C [4]: 106%
viability, T/C (second compound 0.0949 µM, first compound 0.000316 µM): 112%
viability, T/C (second compound 0.0949 µM, first compound 0.001 µM): 94.4%
viability, T/C [5]: 109%
viability, T/C [6]: 118%
viability, T/C [7]: 113%
viability, T/C [8]: 103%
viability, T/C (second compound 0.3 µM, first compound 0.000316 µM): 112%
viability, T/C (second compound 0.3 µM, first compound 0.001 µM): 120%
viability, T/C [9]: 127%
viability, T/C [10]: 107%
viability, T/C [11]: 125%
viability, T/C [12]: 116%
viability, T/C (second compound 0.949 µM, first compound 0.000316 µM): 107%
viability, T/C (second compound 0.949 µM, first compound 0.001 µM): 114%
viability, T/C [13]: 110%
viability, T/C [14]: 121%
viability, T/C [15]: 106%
viability, T/C [16]: 115%
viability, T/C (second compound 3 µM, first compound 0.000316 µM): 102%
viability, T/C (second compound 3 µM, first compound 0.001 µM): 118%
viability, T/C [17]: 110%
viability, T/C [18]: 109%
viability, T/C [19]: 110%
viability, T/C [20]: 107%
